Assay results: publication PMC8998492 (2022)

Assays:
[1] = system: c-myc promoter i-motif (DNA, i motif) CCCCACCTTCCCCACCCTCCCCACCCTCCCC; test: fluorescent displacement (FID), microplate reader; conditions: 100 mM KCl; 1 × BPES; tracer G59 displaced
[2] = system: 5'-biotin c-myc (i-motif) (DNA, i motif) CCCCACCTTCCCCACCCTCCCCACCCTCCCC; test: SPR; conditions: 100 mM KCl; 20 mM MES pH 5.5, 0.05% Tween-20, 25 °C; DNA immobilised
[3] = system: 5'-biotin c-myc G-quadruplex (DNA, G4) TTGAGGGTGGGTAGGGTGGGTAAA; test: SPR; conditions: 100 mM KCl; 20 mM Tris-HCl pH 7.4, 25 °C; DNA immobilised
[4] = system: c-myc-C7A (DNA, i motif) CCCCACATTCCCCACCCTCCCCACCCTCCCC; test: fluorescence enhancement; conditions: 100 mM KCl; 1 × BPES pH 5.5
[5] = system: c-myc-C25G (DNA, i motif) CCCCACCTTCCCCACCCTCCCCACGCTCCCC; test: fluorescence enhancement; conditions: 100 mM KCl; 1 × BPES pH 5.5
[6] = system: c-myc promoter i-motif (DNA, i motif) CCCCACCTTCCCCACCCTCCCCACCCTCCCC; test: CD melting; conditions: 100 mM KCl; 1 × BPES pH 5.5; 2 μM DNA, 10 μM G59; Tm 53.1 to 59.9 °C
[7] = system: c-myc-C25A (DNA, i motif) CCCCACCTTCCCCACCCTCCCCACACTCCCC; test: fluorescence enhancement; conditions: 100 mM KCl; 1 × BPES pH 5.5
[8] = system: c-myc-C16T (DNA, i motif) CCCCACCTTCCCCACTCTCCCCACCCTCCCC; test: fluorescence enhancement; conditions: 100 mM KCl; 1 × BPES pH 5.5
[9] = system: c-myc-C16G (DNA, i motif) CCCCACCTTCCCCACGCTCCCCACCCTCCCC; test: fluorescence enhancement; conditions: 100 mM KCl; 1 × BPES pH 5.5
[10] = system: SS26 (DNA, single strand) ATACGATGCTTCACGGTGCTATCTG; test: fluorescence titration; conditions: 100 mM KCl; 20 mM Tris-HCl pH 7.4; also unstained in PAGE
[11] = system: c-myc-C7T (DNA, i motif) CCCCACTTTCCCCACCCTCCCCACCCTCCCC; test: fluorescence enhancement; conditions: 100 mM KCl; 1 × BPES pH 5.5
[12] = system: c-myc promoter i-motif (DNA, i motif) CCCCACCTTCCCCACCCTCCCCACCCTCCCC; test: ITC; conditions: 100 μM G59 injected into 4 μM DNA; KD = 1/Ka (Ka 5.94×10^5 M-1)
[13] = system: c-myc-C7G (DNA, i motif) CCCCACGTTCCCCACCCTCCCCACCCTCCCC; test: fluorescence enhancement; conditions: 100 mM KCl; 1 × BPES pH 5.5
[14] = system: c-myc-C16A (DNA, i motif) CCCCACCTTCCCCACACTCCCCACCCTCCCC; test: fluorescence enhancement; conditions: 100 mM KCl; 1 × BPES pH 5.5
[15] = system: c-myc promoter i-motif (DNA, i motif) CCCCACCTTCCCCACCCTCCCCACCCTCCCC; test: fluorescence enhancement; conditions: 100 mM KCl; 1 × BPES pH 5.5
[16] = system: c-myc-C25T (DNA, i motif) CCCCACCTTCCCCACCCTCCCCACTCTCCCC; test: fluorescence enhancement; conditions: 100 mM KCl; 1 × BPES pH 5.5
[17] = system: DS26 (DNA, duplex) CAATCGGATCGAATTCGATCCGATTG; test: fluorescence titration; conditions: 100 mM KCl; 20 mM Tris-HCl pH 7.4; also unstained in PAGE
[18] = system: c-myc promoter i-motif (DNA, i motif) CCCCACCTTCCCCACCCTCCCCACCCTCCCC; test: fluorescent displacement (FID); conditions: 100 mM KCl; 1 × BPES pH 5.5; tracer 1 μM G59 displaced, 2 μM DNA; 5 eq (5 μM) 3be

Structure (SMILES): C[C@H]1O[C@@H](O[C@H]2CC[C@@]3(C)[C@@H](CC[C@]4(C)[C@@H]3C=CC3=C5CC(C)(C)CC[C@]5(CO)[C@H](O)C[C@]34C)[C@]2(C)CO)[C@H](O)[C@@H](O[C@@H]2O[C@H](CO)[C@@H](O)[C@H](O)[C@H]2O)[C@H]1O
- binding [1]: yes
- KD [2]: 9.52 µM
- KD [3]: 46.2 µM

Structure (SMILES): O=C1c2cccc3c(-c4ccc5c(c4)c4cc(-c6ccc7c8c(cccc68)C(=O)N(CCN6CCCC6)C7=O)ccc4n5CCN4CCCC4)ccc(c23)C(=O)N1CCN1CCCC1
- FI/F0 [4]: 13.35
- FI/F0 [5]: 6.59
- ΔTm [6]: 6.8 °C
- FI/F0 [7]: 17.15
- FI/F0 [8]: 18.23
- FI/F0 [9]: 6.03
- binding [10]: weak
- FI/F0 [11]: 18.35
- KD [12]: 1.68 µM
- FI/F0 [13]: 5.44
- FI/F0 [14]: 15.2
- FI/F0 [15]: 17.98
- FI/F0 [16]: 17.92
- binding [17]: weak

Structure (SMILES): c1ccc2c(c1)c1cc(-c3cn(CCN4CCCC4)nn3)ccc1n2CCN1CCCC1
- relative replacement ratio [18]: 42.09%
